Experimental data: publication PMC9684509, “Construction of a synthetic methodology-based library and its application in identifying a GIT/PIX protein–protein interaction inhibitor” (Nature Communications, 2022)
Ends that are not written are not given here.

T1: GIT1 1–370 (Mus musculus, UniProt Q68FF6)
T1 construct: residues 1-370, E. coli BL21(DE3), N-terminal Trx-His6 tag removed by HRV-3C protease; for BLI biotin-labelled (BLI construct not restated)
T1 sequence (Q68FF6 1-370): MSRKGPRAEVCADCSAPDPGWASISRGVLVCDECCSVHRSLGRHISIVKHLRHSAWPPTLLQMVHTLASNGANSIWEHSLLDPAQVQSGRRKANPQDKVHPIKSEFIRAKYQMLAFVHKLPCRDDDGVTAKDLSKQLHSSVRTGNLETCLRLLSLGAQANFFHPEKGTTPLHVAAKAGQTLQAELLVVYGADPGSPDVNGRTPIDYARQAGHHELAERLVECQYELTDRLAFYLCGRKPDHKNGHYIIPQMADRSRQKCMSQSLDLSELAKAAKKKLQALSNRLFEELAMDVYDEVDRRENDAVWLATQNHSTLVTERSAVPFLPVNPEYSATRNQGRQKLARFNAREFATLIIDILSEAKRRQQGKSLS

T2: GIT1 1–370 (mouse) (mouse, UniProt Q68FF6 1-370)
T2 construct: GIT1, mouse, aa 1-370 (GenBank NM_001004144.1), cloned into pET32M3C; also called GIT1 protein; source: E. coli BL21 (DE3), purified (Ni-NTA, SEC, tag cleaved by HRV-3C, SEC); not shown: Trx, N-terminal, cleaved; His6, N-terminal, cleaved
T2 sequence (looked up): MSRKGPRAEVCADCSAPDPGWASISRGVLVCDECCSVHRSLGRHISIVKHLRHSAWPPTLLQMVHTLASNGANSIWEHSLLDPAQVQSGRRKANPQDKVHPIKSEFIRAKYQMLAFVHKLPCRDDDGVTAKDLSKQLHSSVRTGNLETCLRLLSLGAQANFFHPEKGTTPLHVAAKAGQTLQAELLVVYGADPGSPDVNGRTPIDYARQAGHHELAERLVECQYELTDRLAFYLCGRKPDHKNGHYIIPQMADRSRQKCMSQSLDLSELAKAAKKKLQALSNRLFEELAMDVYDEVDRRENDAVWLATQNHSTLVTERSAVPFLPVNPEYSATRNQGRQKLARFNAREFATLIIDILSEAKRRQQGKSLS

B1: FITC-β-Pix fluorescent peptide (peptide)
peptide: ALEEDAQILKVIEAYCTSAKT
modifications: not fully specified (N-terminus)
notes: source: synthetic peptide (China peptide, Shanghai)

What follows are molecules tested against T1, GIT1 1–370 (assay: biochemical). Conditions: read-out: IC50 in FP assay.
Parameters: fluorescence polarization competition, displacement of FITC-beta-Pix peptide from GIT1
Protocol: GIT1 protein purification: Purification of GIT1 1–370 was performed following a published protocol. Briefly, the coding sequence of mouse GIT1 aa. 1–370 (GenBank: NM_001004144.1) was cloned into a pET32M3C (with an N-terminal Trx-His6 tag) vector. The recombinant protein was expressed in Escherichia coli BL21 (DE3) cells at 16 °C for 18 h induced by the isopropyl-β-D-thiogalactoside (IPTG) at a final concentration of 0.2 mM. The N-terminal Trx-His6-tagged GIT1 1–370 was purified by Ni^2+-NTA agarose affinity chromatography, followed by a Superdex-200 26/60 size-exclusion chromatography (GE Healthcare, Cytiva). To remove the Trx-His6 tag, GIT1 protein was cleaved by HRV-3C protease at 4 °C overnight and then purified by another step of SEC purification. The β-Pix-positive peptide (sequence: […]) and fluorescent peptide (sequence: FITC-(Acp)-[…]) were synthesized by China peptide (Shanghai, China). […] The fluorescence intensities, parallel and perpendicular to the plane of excitation, were determined in Corning black 96-well NBS assay plates at room temperature. Fluorescence polarization was determined using a Multi-Mode Detection Platform (SpectraMax Paradigm, Molecular Devices, USA) with 485 nm excitation and 535 nm emission filters, the values were expressed in millipolarization units (mP). The binding affinity of the fluorescent peptide toward GIT1 was first determined via titration. […]

IC50 | Molecule
> 1000 µM | O=C(NCc1ccco1)C1CN(C(=O)c2cccs2)CC12CCCCC2 (stereo not drawn) [S030-1757]

What follows are molecules tested against T1, GIT1 1–370 (assay: fluorescence polarization competition with FITC-beta-Pix peptide). Conditions: not given.
Format: binding

Ki | Molecule
1.8 µM | CCOC(=O)[C@@H]1[C@@H]2C[C@@H](/C(=C\c3ccoc3)C2=O)[C@@]12C(=O)N(C)c1ccccc12 [14-5-18]
1.5 µM | CCOC(=O)C1=C[C@H](c2cccc(C)c2)[C@H]2CC[C@@H](CC(=O)C3CCCCC3)O[C@H]2N1S(=O)(=O)c1ccc(C)cc1 [15-4-26]

Biological target: T1, GIT1 1–370
Experiment: biochemical
Parameters: Fluorescence polarization competition of FITC-beta-Pix peptide binding to GIT1 1-370
Conditions: read-out: IC50 in FP assay
Remark: another data set of the same source
Protocol: GIT1 protein purification: Purification of GIT1 1–370 was performed following a published protocol. Briefly, the coding sequence of mouse GIT1 aa. 1–370 (GenBank: NM_001004144.1) was cloned into a pET32M3C (with an N-terminal Trx-His6 tag) vector. The recombinant protein was expressed in Escherichia coli BL21 (DE3) cells at 16 °C for 18 h induced by the isopropyl-β-D-thiogalactoside (IPTG) at a final concentration of 0.2 mM. The N-terminal Trx-His6-tagged GIT1 1–370 was purified by Ni^2+-NTA agarose affinity chromatography, followed by a Superdex-200 26/60 size-exclusion chromatography (GE Healthcare, Cytiva). To remove the Trx-His6 tag, GIT1 protein was cleaved by HRV-3C protease at 4 °C overnight and then purified by another step of SEC purification. The β-Pix-positive peptide (sequence: […]) and fluorescent peptide (sequence: FITC-(Acp)-[…]) were synthesized by China peptide (Shanghai, China). FP assay was used to monitor interactions between GIT1 and the compounds. For each assay, fresh protein stocks of GIT1 were thawed. Assay buffer contained 100 mM NaCl, 50 mM Tris pH 7.5. All the experiments were prepared in duplicates. The fluorescence intensities, parallel and perpendicular to the plane of excitation, were determined in Corning black 96-well NBS assay plates at room temperature. Fluorescence polarization was determined using a Multi-Mode Detection Platform (SpectraMax Paradigm, Molecular Devices, USA) with 485 nm excitation and 535 nm emission filters, the values were expressed in millipolarization units (mP). The binding affinity of the fluorescent peptide toward GIT1 was first determined via titration. For this purpose, 100 nM fluorescent peptide was contacted with serial dilutions of GIT1 (concentration ranging from 0.01 to 10 µM) in a final volume of 80 µL. KD value was stimulated from FP values and protein concentrations using GraphPad Prism 8.0 software. Competition binding assay was performed using 100 nM fluorescent peptide and optimal protein concentration (2.0 µM) for the measurement was calculated based on determined KD. Tested compounds were prepared as serial dilutions (0.1–500 µM) in DMSO. […] Additionally, the commercial compound library ChemDiv was screened as a control. The 20 compounds with the best docking scores were selected, purchased, and further subjected to FP binding assay to test their inhibitory abilities. […] The screening was performed at both virtual and entity levels. In the virtual screening, the docking model of the GIT1/β-Pix complex was constructed, and the binding pocket was generated based on the complex structure of GIT2/β-Pix that we solved recently (PDB ID: 6JMT)[42] (Fig. 2c). The virtual library (SMBL-V) was subjected to the Sybyl-X 2.0 program to perform high-throughput docking screening with GIT1 at the specific binding pockets. […] The Autodock and Sybyl-X 2.0 programs were used in combination for the second round of screening. Twenty top-ranked molecules were selected, and 9 compounds were synthesized (one structure for each scaffold) to perform further evaluation (N = 9) (see Source Data File for detailed structures and scores). For the entity library (SMBL-E) screening, a fluorescence polarization (FP)-binding assay[43],[44] was established to evaluate the inhibitory abilities of the compounds on the GIT1/β-Pix interaction (Fig. 2d). Several representative compounds (N = 100) with different scaffolds were chosen for screening. Together with the 9 compounds selected from virtual screening, a total of 109 compounds were subjected to the FP binding assay to perform the final evaluation. Compound 15-4-26 from the virtual library and compound 14-5-18 from the entity library with the best binding affinities (Ki values) were selected as candidates (Fig. 2e and Supplementary Fig. 3).

IC50 | Molecule
> 1000 µM | Cc1cc(-c2ccc3ccccc3n2)nc2ccc3ccccc3c12 [0443-0206]
> 1000 µM | CC(NS(=O)(=O)c1ccc2c(c1)C(=O)c1cc(S(=O)(=O)NC(C)C(=O)O)ccc1-2)C(=O)O (stereo not drawn) [2578-0155]
> 100 µM | C1C2CC3CC1CC(C2)C3Nc1nc2nonc2nc1NC1C2CC3CC(C2)CC1C3 (stereo not drawn) [3277-0083]
> 100 µM | Cn1c(=O)c2c(nc(Oc3cccc(C4Nc5ccc6ccccc6c5C5=C4C(=O)CC(C)(C)C5)c3)n2C)n(C)c1=O (stereo not drawn) [3277-0261]
> 1000 µM | CC1=CC(C)(C)Nc2ccc(OC(=O)C(Cc3ccccc3)N3C(=O)C4CCCCC4C3=O)cc21 (stereo not drawn) [4934-0001]
> 1000 µM | Cn1c(=O)n(C)c2cc(CNC34CC5CC(C)(CC(C)(C5)C3)C4)ccc21 [D272-0692]
> 100 µM | Cc1ccc2cc3c(nc2c1)N(S(=O)(=O)c1ccc2c(c1)OCCO2)CC3 [D470-0645]
> 1000 µM | CN1C(=O)C(c2c(-c3ccc4ccccc4c3)[nH]c3[nH]c(=O)[nH]c(=O)c23)c2ccccc21 (stereo not drawn) [D517-1064]
> 1000 µM | CSc1cccc(NC(=O)Nc2ccc(Nc3cc(N(C)C)nc(C)n3)cc2)c1 [D638-0006F]
> 100 µM | O=S(=O)(c1ccc2nc(Nc3ccc(Br)cc3F)ccc2c1)N1CCCCC1 [F052-0078]
> 100 µM | O=C(Nc1cccc(OCc2cc(=O)n3cc(Cl)ccc3n2)c1)Nc1ccc2c(c1)OCCO2 [G756-2320]
> 1000 µM | O=C1Nc2ccccc2Oc2cc(Oc3ccc4c(c3)OCO4)c(S(=O)(=O)N3CCCC3)cc21 [J030-0445]
> 1000 µM | CCS(=O)(=O)c1ccc2c(c1)N(Cc1nc(-c3ccc4c(c3)OCO4)no1)C(=O)CO2 [L111-0329]
> 100 µM | Cc1cc(C)cc(S(=O)(=O)N2CCC3(CC2)NCCN=C3NCc2ccc(C(F)(F)F)cc2)c1 [L676-2486]
> 1000 µM | CC(CC(=O)Nc1ccc2c(c1)OCCO2)S(=O)(=O)c1ccc2c(c1)NC(=O)CCS2 (stereo not drawn) [L705-0544]

What follows are molecules tested against T1, GIT1 1–370 (assay: biochemical). Conditions: read-out: ka.
Parameters: Biolayer interferometry, kinetic binding of 14-5-18 to GIT1
Excerpt: We next investigated whether compounds 14-5-18 and 15-4-26 specifically perturbed the GIT1/β-Pix interaction in living cells. Firstly, we performed Cellular Thermal Shift Assay (CETSA) to preliminarily explore the target engagement of the compounds with GIT1 (Supplementary Fig. 4). CETSA relies on the fact that proteins are generally vulnerable to thermal conditions, while physical binding with other molecules could improve their stability. […] Therefore, further evaluations were only performed with 14-5-18, and 15-4-26 was suspended for its poor potential for drug development. […] Similarly, under thermal conditions from 30 to 90 °C, 14-5-18 (50 µM) also considerably stabilized GIT1, especially at high temperatures (Supplementary Fig. 4c). To further confirm whether 14-5-18 directly bound to GIT1, we used biolayer interferometry (BLI) assay to measure their interaction. […] Concentrations ranging from 25 to 400 μM were shown with the real-time response for each step of the kinetic assay. b Co-IP assay to indicate the interaction of GIT1 and β-Pix and the inhibitory effects of 14-5-18. […] GFP-GIT1 (green) and Myc-β-Pix were expressed followed by treatment with a fluorescent secondary antibody (red) in the MGC803 cell line to construct the fluorescence system. […] Plot fluorescence intensities of the area marked by the white lines in the left panels are shown in the right graphs. […]

kon | Molecule
200 M⁻¹ s⁻¹ | CCOC(=O)[C@@H]1[C@@H]2C[C@@H](/C(=C\c3ccoc3)C2=O)[C@@]12C(=O)N(C)c1ccccc12 [14-5-18, ethyl (1S,2R,3R,4S,E)-6-(furan-3-ylmethylene)-1'-methyl-2',5-dioxospiro [bicyclo[2.2.1]heptane-2,3'-indoline]-3-carboxylate]

Same assay, conditions: read-out: kdis

koff | Molecule
0.00154 s⁻¹ | CCOC(=O)[C@@H]1[C@@H]2C[C@@H](/C(=C\c3ccoc3)C2=O)[C@@]12C(=O)N(C)c1ccccc12 [14-5-18, ethyl (1S,2R,3R,4S,E)-6-(furan-3-ylmethylene)-1'-methyl-2',5-dioxospiro [bicyclo[2.2.1]heptane-2,3'-indoline]-3-carboxylate]

The molecules below were run against T2, GIT1 1–370 (mouse) (assay: fluorescence polarisation; direct titration: 100 nM fluorescent peptide with serial dilutions of GIT1 (0.01 to 10 µM), 80 µL; 100 mM NaCl, 50 mM Tris pH 7.5, room temperature). Conditions: both partners purified.

binding result | Molecule
binds | B1
